Measured values reported in patent US20070219214A1, “Dual NK2/NK3-antagonists, pharmaceutical compositions comprising them, and processes for their preparation” (Solvay pharmaceuticals GmbH, priority 2006, published 2007).

Legend:
human NK1-receptor = human NK1-receptor (Homo sapiens, UniProt P25103); assay: Binding potency of the test substances to NK1-receptors in vitro ([3H]-Substance P displacement); conditions: human NK1-receptor in CHO cell membranes, average of at least three measurements, read-out: pKi, binding potency to NK1-receptors (converted)
NK1-receptor = biological target: T1, NK1-receptor (Cavia porcellus, UniProt P30547); assay: Functional NK1-receptor antagonism in aortic ring preparations isolated from guinea pigs; conditions: Substance P-induced relaxation
T1 construct: from tissue; host or cells: whole animal (Pirbright-White guinea pigs), in vivo
Protocol: 5. Determination of Functional NK1-Receptor Antagonism of Test Compounds in Tissue Isolated from Guinea Pigs.
The NK1-antagonistic action of test compounds was tested in aortic ring preparations isolated from guinea pigs. The preparations were kept in an oxygenated nutrient solution kept at 37° C. For measuring contraction of the circular vascular muscle, the preparations were fixed to a hook and connected to force displacement transducers. Contractions/relaxations were recorded on a pen recorder. The preparations were given a medium tonus by addition of phenylephrine.
Before (predrug) and after the administration of the test compound such relaxations were measured and quantified in percent of the predrug relaxation. 2-3 concentrations of the test compound were applied showing the inhibition of the receptor stimulation concentration dependently. The concentration of half-maximal inhibition (IC50) and its negative logarithm pIC50=−log(IC50) was calculated. The pIC50 value indicates the inhibitory potency of the test compounds to the NK1-receptor.

T1 sequence (P30547 whole entry): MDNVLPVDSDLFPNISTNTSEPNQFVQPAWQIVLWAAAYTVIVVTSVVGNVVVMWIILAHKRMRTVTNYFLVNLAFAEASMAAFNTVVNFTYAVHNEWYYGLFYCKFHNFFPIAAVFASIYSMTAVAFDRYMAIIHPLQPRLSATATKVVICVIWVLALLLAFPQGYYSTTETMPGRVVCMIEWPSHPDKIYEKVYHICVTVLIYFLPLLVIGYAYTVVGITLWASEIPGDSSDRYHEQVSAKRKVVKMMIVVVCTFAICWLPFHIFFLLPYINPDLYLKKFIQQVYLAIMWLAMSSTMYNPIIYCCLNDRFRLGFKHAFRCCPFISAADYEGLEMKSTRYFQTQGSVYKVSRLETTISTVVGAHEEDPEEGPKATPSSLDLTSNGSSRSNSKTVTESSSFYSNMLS
human NK1-receptor, sequence (P25103 whole entry): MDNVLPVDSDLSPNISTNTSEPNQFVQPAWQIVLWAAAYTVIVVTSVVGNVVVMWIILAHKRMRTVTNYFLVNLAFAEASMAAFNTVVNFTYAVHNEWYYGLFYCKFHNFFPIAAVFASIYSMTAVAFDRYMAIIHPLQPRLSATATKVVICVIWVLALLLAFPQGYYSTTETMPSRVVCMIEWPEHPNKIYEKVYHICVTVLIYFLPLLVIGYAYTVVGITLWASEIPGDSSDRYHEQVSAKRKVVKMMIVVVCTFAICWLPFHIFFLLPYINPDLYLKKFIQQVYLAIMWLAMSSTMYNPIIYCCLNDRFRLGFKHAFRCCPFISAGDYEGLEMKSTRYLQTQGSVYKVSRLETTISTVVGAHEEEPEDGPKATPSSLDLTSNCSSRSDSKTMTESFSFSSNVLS

Row | Ki (human NK1-receptor) [nM] | pIC50, functional NK1-antagonism on isolated guinea pig tissue (NK1-receptor) | SMILES
1 | 79.4 | – | CN(C)C(=O)C1(N2CCCCC2)CCN(CC[C@H](CN(C)C(=O)c2ccccc2)c2ccc(Cl)c(Cl)c2)CC1 [compound 1]
2 | – | 8.26 | CN(C)C(=O)C1(N2CCCCC2)CCN(CC[C@H](CN(C)C(=O)c2cc(C#N)c3ccccc3c2)c2ccc(Cl)c(Cl)c2)CC1 [compound 11]
